pEC50: −log10 of the molar value. Where two headings read alike, the source gives them in different places.
Target: T1, F508delCFTR (Homo sapiens, UniProt P13569, DEL508-508)
T1 construct: expressed in transfected cells; host or cells: CFBE41o- human lung-derived epithelial cells (CFBE4lo-F508delCFTR-HRP), doxycycline-inducible
Test: Cell Surface Expression-Horse Radish Peroxidase (CSE-HRP) Assay;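 for Maximum % activity (with co-corrector): co-corrector and positive control are both the same reference corrector at 2 µM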;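 for Maximum % activity (without co-corrector): percent of the 2 µM on-plate positive control corrector response above DMSO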
Type: cell-based
Details: for Maximum % activity (with co-corrector) / Emax: maximum at any tested concentration, normalized to on-plate positive control; for Emax: read-out: Maximum % activity (without co-corrector)
Procedure: Cell Surface Expression-Horse Radish Peroxidase (CSE-HRP) Assay;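 for Maximum % activity (with co-corrector): co-corrector and positive control are both the same reference corrector at 2 µM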;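 for Maximum % activity (without co-corrector): percent of the 2 µM on-plate positive control corrector response above DMSO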
The development was achieved by expressing the F508delCFTR mutation along with a horseradish peroxidase (HRP) in the fourth exofacial loop, and then measuring the HRP activity using luminescence readout from these cells, CFBE4lo-F508delCFTR-HRP, that were incubated overnight with the test corrector compounds, either without or with the co-corrector. […] The test compounds were then added either without or with a co-corrector at the required concentrations and further incubated for 18-24 hours at 33° C. The highest concentration tested was 20 μM with an 8-point concentration response curve using a 3-fold dilution in both the test compound without or with the co-corrector. Three replicate plates were run to determine one EC50. All plates contained negative controls (dimethyl sulfoxide, DMSO) and positive control (2 μM of 3-[(2R,4R)-4-({[1-(2,2-difluoro-1,3-benzodioxol-5-yl)cyclopropyl]carbonyl}amino)-7-methoxy-3,4-dihydro-2H-chromen-2-yl]benzoic acid) as well as on-plate concentration response of the positive control. […] The raw counts from the experiment were analyzed using Accelrys® Assay Explorer v3.3.
1−[3*SDPositive Control+3*SDNegative Control/Absolute(MeanPositive Control−MeanNegative Control)]
wherein “SD” is standard deviation.
The % activity measured at each of the 8 test concentrations of the test compound added either without or with a co-corrector (2 μM of 3-[(2R,4R)-4-({[1-(2,2-difluoro-1,3-benzodioxol-5-yl)cyclopropyl]carbonyl}amino)-7-methoxy-3,4-dihydro-2H-chromen-2-yl]benzoic acid) was normalized to the on-plate positive control using the following formulae:
% activity(Test compound without co-corrector)=[(test compound without co-corrector response−DMSO response)/(positive control response−DMSO response)]*100
% activity(Test compound with co-corrector)=[(test compound with co-corrector response−DMSO response)/(positive control response−DMSO response)]*100
The maximum % activity achieved for the test compound either without or with a co-corrector at any tested concentration is presented in Table 4 along with the respective EC50's calculated using the following general sigmoidal curve with variable Hill slope equation (described as Model 42 in the Accelrys® Assay Explorer v3.3 software):
General sigmoidal curve with concentration, response, top, bottom, EC50 and Hill slope. This model describes a sigmoidal curve with an adjustable baseline, a. The equation can be used to fit curves where response is either increasing or decreasing with respect to the independent variable, “x”.
“x” is a concentration of drug under test. “y” is the response. “a” is the maximum response, and “d” is the minimum response “c” is the inflection point (EC50) for the curve. That is, “y” is halfway between the lower and upper asymptotes when x=c. “b” is the slope-factor or Hill coefficient. The sign of b is positive when the response increases with increasing dose and is negative when the response decreases with increasing dose (inhibition).

[1] = CSE-HRP, test compound without co-corrector, read-out: EC50 (without co-corrector)
[2] = CSE-HRP, with co-corrector (2 μM of 3-[(2R,4R)-4-({[1-(2,2-difluoro-1,3-benzodioxol-5-yl)cyclopropyl]carbonyl}amino)-7-methoxy-3,4-dihydro-2H-chromen-2-yl]benzoic acid), read-out: EC50 (with co-corrector)
[3] = CSE-HRP, with co-corrector (2 μM)
[4] = test compound without co-corrector
[5] = test compound without co-corrector, read-out: EC50 (without co-corrector)
[6] = with co-corrector (2 μM of 3-[(2R,4R)-4-({[1-(2,2-difluoro-1,3-benzodioxol-5-yl)cyclopropyl]carbonyl}amino)-7-methoxy-3,4-dihydro-2H-chromen-2-yl]benzoic acid), read-out: EC50 (with co-corrector)

T1 sequence (P13569 with tags, fused parts or gaps DEL508-508): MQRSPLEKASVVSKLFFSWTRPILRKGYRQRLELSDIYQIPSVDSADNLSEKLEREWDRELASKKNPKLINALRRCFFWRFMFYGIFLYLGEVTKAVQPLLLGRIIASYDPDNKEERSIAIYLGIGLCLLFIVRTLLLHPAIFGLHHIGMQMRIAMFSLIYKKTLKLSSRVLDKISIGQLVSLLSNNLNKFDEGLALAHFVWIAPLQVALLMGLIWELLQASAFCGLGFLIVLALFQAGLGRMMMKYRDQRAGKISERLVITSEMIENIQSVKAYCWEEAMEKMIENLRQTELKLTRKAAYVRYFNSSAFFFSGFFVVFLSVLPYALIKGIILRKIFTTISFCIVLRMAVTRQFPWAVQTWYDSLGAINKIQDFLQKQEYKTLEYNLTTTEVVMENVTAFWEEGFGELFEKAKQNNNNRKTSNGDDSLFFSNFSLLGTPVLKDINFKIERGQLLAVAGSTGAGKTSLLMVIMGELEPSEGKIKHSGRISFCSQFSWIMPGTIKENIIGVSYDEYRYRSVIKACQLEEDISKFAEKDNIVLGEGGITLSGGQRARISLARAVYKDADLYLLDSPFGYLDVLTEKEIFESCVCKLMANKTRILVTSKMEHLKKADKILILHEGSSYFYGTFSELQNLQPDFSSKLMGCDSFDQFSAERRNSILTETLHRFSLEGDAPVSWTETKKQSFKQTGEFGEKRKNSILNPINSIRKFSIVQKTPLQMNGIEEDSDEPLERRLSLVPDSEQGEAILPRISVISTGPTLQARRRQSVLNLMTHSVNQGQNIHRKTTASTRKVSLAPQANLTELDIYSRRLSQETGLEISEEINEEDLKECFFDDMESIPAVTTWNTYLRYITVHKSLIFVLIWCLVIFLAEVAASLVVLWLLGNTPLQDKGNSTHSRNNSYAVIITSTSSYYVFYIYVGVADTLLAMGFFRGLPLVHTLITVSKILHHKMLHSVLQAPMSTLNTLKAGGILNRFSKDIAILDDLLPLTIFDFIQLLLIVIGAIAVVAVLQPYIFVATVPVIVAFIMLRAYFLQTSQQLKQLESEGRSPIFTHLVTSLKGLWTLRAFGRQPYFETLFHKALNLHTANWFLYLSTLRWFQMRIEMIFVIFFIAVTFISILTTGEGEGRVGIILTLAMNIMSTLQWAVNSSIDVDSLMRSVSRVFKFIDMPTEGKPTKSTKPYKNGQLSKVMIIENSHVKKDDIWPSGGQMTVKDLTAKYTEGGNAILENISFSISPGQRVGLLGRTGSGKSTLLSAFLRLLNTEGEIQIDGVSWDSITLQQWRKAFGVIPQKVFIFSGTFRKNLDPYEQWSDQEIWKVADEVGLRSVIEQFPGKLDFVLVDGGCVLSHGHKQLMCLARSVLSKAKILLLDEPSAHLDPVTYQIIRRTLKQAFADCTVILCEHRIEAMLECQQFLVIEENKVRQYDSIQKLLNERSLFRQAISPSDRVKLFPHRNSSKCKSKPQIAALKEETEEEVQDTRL

Structure (SMILES)	pEC50 [1]	pEC50 [2]	Maximum % activity (with co-corrector) [3]	Emax (CSE-HRP, without co-corrector) [%]	Emax [4] [%]	pEC50 [5]	pEC50 [6]	Maximum % activity (with co-corrector) (with co-corrector (2 μM))	Emax (without co-corrector) [%]	Maximum % activity (with co-corrector) (with co-corrector (2 μM of 3-[(2R,4R)-4-({[1-(2,2-difluoro-1,3-benzodioxol-5-yl)cyclopropyl]carbonyl}amino)-7-methoxy-3,4-dihydro-2H-chromen-2-yl]benzoic acid))
COc1ccc(C(C)(C)C)cc1CN[C@H]1[C@H](C(C)(C)C)[C@@H](C(=O)O)N(C(=O)C2CC(C)C2)[C@H]1c1ccccc1 (some centres unmarked) [II-306]	5.00 to 6.00	5.00 to 6.00	+++ (≥350)	> 200	–	–	–	–	–	–
COc1ccc(C(F)(F)F)cc1CN[C@H]1[C@H](C(C)(C)C)[C@@H](C(=O)O)N(C(=O)C2CCCCC2)[C@H]1c1cccnc1N(C)C [Example I-53]	–	–	–	–	–	5.00 to 6.00	5.00 to 6.00	+++ (≥350)	100 to 200	–
COc1ccc(C(C)(C)C)cc1CN[C@H]1[C@H](C(C)(C)C)[C@@H](C(=O)O)N(C(=O)C[C@H]2OCCc3ccccc32)[C@H]1c1ccccc1 [II-178]	5.00 to 6.00	> 6.00	+++ (≥350)	> 200	–	–	–	–	–	–
COc1ccc(C2(C)CCC2)cc1CN[C@H]1[C@H](C(C)(C)C)[C@@H](C(=O)O)N(C(=O)[C@@H]2CCCO2)[C@H]1c1ccccc1C1CC1 [Example 112, (2S,3S,4S,5S)-3-tert-butyl-5-(2-cyclopropylphenyl)-4-({[2-methoxy-5-(1-methylcyclobutyl)phenyl]methyl}amino)-1-[(2S)-oxolane-2-carbonyl]pyrrolidine-2-carboxylic acid]	–	–	–	–	–	5.00 to 6.00	> 6.00	+++ (≥350)	> 200	–
COc1ccc(C(F)(F)F)cc1CN[C@H]1[C@H](C(C)(C)C)[C@@H](C(=O)O)N(C(=O)OC(C)C)[C@H]1c1ccccc1C(C)C [Example 83, (2S,3S,4S,5S)-3-tert-butyl-4-({[2-methoxy-5-(trifluoromethyl)phenyl]methyl}amino)-1-{[(propan-2-yl)oxy]carbonyl}-5-[2-(propan-2-yl)phenyl]pyrrolidine-2-carboxylic acid]	–	–	–	–	–	5.00 to 6.00	> 6.00	+++ (≥350)	> 200	–
COc1ccc(C(C)(C)C)cc1CN[C@H]1[C@H](C(C)(C)C)[C@@H](C(=O)O)N(C(=O)C2CC(C)CCO2)[C@H]1c1ccccc1 (some centres unmarked) [II-174]	5.00 to 6.00	5.00 to 6.00	+++ (≥350)	> 200	–	–	–	–	–	–
COc1ccc(-c2sc(C)nc2C)cc1CN[C@H]1[C@H](C(C)(C)C)[C@@H](C(=O)O)N(C(=O)C2CCCCC2)[C@H]1c1ccccc1 [Example I-127]	–	–	–	–	–	5.00 to 6.00	5.00 to 6.00	+++ (≥350)	100 to 200	–

Now from value to compound:

pEC50 [1]	pEC50 [2]	Maximum % activity (with co-corrector) [3]	Emax (CSE-HRP, without co-corrector) [%]	Emax [4] [%]	pEC50 [5]	pEC50 [6]	Maximum % activity (with co-corrector) (with co-corrector (2 μM))	Emax (without co-corrector) [%]	Maximum % activity (with co-corrector) (with co-corrector (2 μM of 3-[(2R,4R)-4-({[1-(2,2-difluoro-1,3-benzodioxol-5-yl)cyclopropyl]carbonyl}amino)-7-methoxy-3,4-dihydro-2H-chromen-2-yl]benzoic acid))	Structure (SMILES)
–	–	–	–	> 200	5.00 to 6.00	> 6.00	+++ (≥350)	–	–	COc1ccc(C(C)c2ccccc2)cc1CN[C@H]1[C@H](C(C)(C)C)[C@@H](C(=O)O)N(C(=O)C2CCCCC2)[C@H]1c1ccccc1 (some centres unmarked) [III-171]
–	–	–	–	< 100	> 6.00	5.00 to 6.00	++ (≥150 and <350)	–	–	CC(C)(C)[C@H]1[C@H](Nc2cc3ccccc3cn2)[C@H](c2ccccc2)N(C(=O)C2CCCCC2)[C@@H]1C(=O)O [III-156]
–	–	–	–	< 100	5.00 to 6.00	5.00 to 6.00	++ (≥150 and <350)	–	–	COc1ccc(C(F)(F)F)c(CN[C@@H]2[C@@H](C(C)(C)C)[C@H](C(=O)O)N(C(=O)C3CCCCC3)[C@@H]2c2ccccc2)c1 (racemic) [III-106]
–	–	–	–	> 200	5.00 to 6.00	5.00 to 6.00	–	–	+++ (≥350)	COc1ccc(C(F)(F)F)cc1CN[C@@H]1[C@@H](C(C)(C)C)[C@H](C(=O)O)N(C(=O)C2C3COCC32)[C@@H]1c1ccccc1N(C)C (mixture of isomers) [III-71]
